Article PMC7143969, “Simultaneous Determination of α-Glucosidase Inhibitory Triterpenoids in Psidium guajava Using HPLC–DAD–ELSD and Pressurized Liquid Extraction” (Molecules, 2020)
Values after ≈ are worked out from the molar mass of the structure shown.

Molecular target: α-glucosidase (Saccharomyces cerevisiae, UniProt P53341)
Assay: Inhibition assay of α-glucosidase activity (p-nitrophenyl α-D-glucopyranoside substrate, absorbance at 405 nm)
Assay type: biochemical
Conditions: Mean ± SE, phosphate buffer pH 6.8, 37 °C, 30 min, NI: No Inhibition
Protocol: Methanol and formic acid (HPLC grade) were purchased from Merck (Darmstadt, Germany). The ultra-pure water was purified using a Millipore Milli Q-Plus system (Millipore, Bedford, MA, USA). The α-glucosidase and p-nitrophenyl α-D-glucopyranoside were purchased from Sigma (St. Louis, USA). The enzymatic reaction results were detected on a SpectraMax M5 (Molecular Devices, San Jose, CA, USA).
The inhibition assay of α-glucosidase was measured by the method as described previously. Briefly, a total volume of 150 µL solution consisting of 100 µL phosphate buffer (0.1 M, pH 6.8), 20 µL α-glucosidase (2.4 unit/mg), 20 µL p-nitrophenyl α-D-glucopyranoside and 10 µL different concentration of test sample (12.5–500 µg/mL), was incubated for 30 min under the temperature of 37 °C, then the reaction was stopped by adding 80 µL 0.1 mM Na2CO3. The results were detected under the wavelength of 405 nm on a SpectraMax M5 (Molecular Devices, San Jose, CA, USA). The controlled sample used solvent instead of triterpenoids and the blank sample used buffer instead of α-glucosidase, respectively. The inhibition activity α-glucosidase was calculated by the following equation:Inhibition (%) = [1 − (As − Asb)/(Ac − Acb)] × 100%(2)
Herein, As, Asb, Ac and Acb are absorption of the test sample, sample blank, control and control blank, respectively. Their half maximal inhibitory concentration (IC50) were calculated and compared.

Chain of α-glucosidase (P53341 whole entry): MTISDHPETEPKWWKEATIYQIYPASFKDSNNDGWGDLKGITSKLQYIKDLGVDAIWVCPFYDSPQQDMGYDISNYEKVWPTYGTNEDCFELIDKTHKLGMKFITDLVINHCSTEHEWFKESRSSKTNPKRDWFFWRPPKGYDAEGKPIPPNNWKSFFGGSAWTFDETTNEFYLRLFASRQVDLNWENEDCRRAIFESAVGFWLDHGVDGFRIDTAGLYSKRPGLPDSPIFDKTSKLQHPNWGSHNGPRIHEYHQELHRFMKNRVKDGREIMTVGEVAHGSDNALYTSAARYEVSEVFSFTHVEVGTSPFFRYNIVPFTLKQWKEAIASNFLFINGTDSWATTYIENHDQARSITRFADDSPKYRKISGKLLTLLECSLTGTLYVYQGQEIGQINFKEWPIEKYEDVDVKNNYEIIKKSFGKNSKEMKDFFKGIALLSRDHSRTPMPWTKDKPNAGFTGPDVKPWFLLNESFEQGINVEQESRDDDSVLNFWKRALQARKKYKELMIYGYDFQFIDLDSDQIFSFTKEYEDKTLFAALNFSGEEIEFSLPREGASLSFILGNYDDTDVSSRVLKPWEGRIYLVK

Compound	IC50 (n = 3) against α-Glucosidase
CC1(C)CCC2(C(=O)O)CCC3(C)C(=CCC4C5(C)CC(O)C(OC(=O)C=Cc6ccc(O)cc6)C(C)(C)C5CCC43C)C2C1 (stereo not drawn) [Compound 6, 3β-O-trans-p-coumaroyl-2α-hydroxy-olean-12-en-28-oic acid]	1.93 ± 0.14 µg/mL (≈ 3.12 µM)
C[C@H]1[C@H](C)CC[C@]2(C(=O)O)CC[C@]3(C)C(=CCC4[C@@]5(C)C[C@@H](O)[C@H](OC(=O)/C=C/c6ccc(O)cc6)C(C)(C)C5CC[C@]43C)[C@H]12 (relative stereo) [Compound 7, 3β-O-trans-p-coumaroyl-2α-hydroxy-urs-12-en-28-oic acid]	2.12 ± 0.15 µg/mL (≈ 3.43 µM)
C[C@H]1[C@H](C)CC[C@]2(C(=O)O)CC[C@]3(C)C(=CC[C@@H]4[C@@]5(C)C[C@@H](O)[C@H](OC(=O)/C=C\c6ccc(O)cc6)C(C)(C)[C@@H]5CC[C@]43C)[C@H]12 (relative stereo) [Compound 5, 3β-O-cis-p-coumaroyl-2α-hydroxy-urs-12-en-28-oic acid]	1.54 ± 0.15 µg/mL (≈ 2.49 µM)
CC1(C)CCC2(C(=O)O)CCC3(C)C(=CCC4C5(C)CC(O)C(OC(=O)C=Cc6ccc(O)cc6)C(C)(C)C5CCC43C)C2C1 (stereo not drawn) [Compound 4, 3β-O-cis-p-coumaroyl-2α-hydroxy-olean-12-en-28-oic acid]	2.25 ± 0.28 µg/mL (≈ 3.64 µM)
C[C@H]1[C@H](C)CC[C@]2(C(=O)O)CC[C@]3(C)C(=CC[C@@H]4[C@@]5(C)C[C@@H](O)[C@H](O)[C@@](C)(CO)[C@@H]5CC[C@]43C)[C@H]12 [Compound 1, asiatic acid]	no inhibition activity
